Data: paper PMC7667655, “Targeted Covalent Inhibition of Plasmodium FK506 Binding Protein 35” (ACS Medicinal Chemistry Letters, 2020)
Values after ≈ are worked out from the molar mass of the structure shown. Where two headings read alike, the source gives them in different places.

Key:
[1] = target: T1, FBD35 (PfFKBP35 binding domain) (Plasmodium falciparum, UniProt Q8I4V8); test: Fluorescence polarization competition, FBD35
T1 construct: FKBP35 Q5 -A128; 6His-SUMO (N, cleaved yes); made in house; host or cells: E. coli BL21 DE3

FKBP12 [2] = target: T2, FKBP12 (Homo sapiens, UniProt P62942); test: Fluorescence polarization competition, FKBP12; type: binding
T2 construct: 6His-SUMO (N, cleaved yes); made in house; host or cells: E. coli (identical protocol to FBD35, BL21 DE3)

[3] = target: T1, FBD35 (PfFKBP35 binding domain); test: Differential scanning calorimetry, FBD35; conditions: read-out: FBD35 ΔTM
FKBP12 [4] = target: T2, FKBP12; test: Differential scanning calorimetry, FKBP12; type: binding; conditions: compound 40 µM
PBS solubility = conditions: pH 7.4
[5] = target: T3, nLuc-tagged full length PfFKBP35 (Plasmodium falciparum, UniProt Q8I4V8); test: NanoBRET cellular target engagement, nLuc-FKBP35; type: cell-based
T3 construct: nanoluciferase-tagged (nLuc) full length PfFKBP35 or nLuc-tagged FKBP12; expressed in transfected cells

nLuc-tagged FKBP12 = target: T4, nLuc-tagged FKBP12 (Homo sapiens, UniProt P62942); test: NanoBRET cellular target engagement, nLuc-FKBP12; type: cell-based
T4 construct: full length Plasmodium falciparum FKBP35 and human FKBP12 DNA were; expressed in transfected cells

[6] = tested on: NF54 P. falciparum parasites; test: P. falciparum strain NF54 growth-inhibition assay; type: cell-based; conditions: Plasmodium falciparum; luciferase reporter NF54 line, 72 h
Method: Figure 6 P. falciparum strain NF54 growth-inhibition assay. […] Proliferation was measured by luminescence after a complete life-cycle and normalized to DMSO (100%) and chloroquine (100 nM, 0%). (B) Structural differences between synthetic ligands and compound IC50s (μM).
Substrate and Extracellular NanoLuc® Inhibitor (Promega, cat. N2160) were diluted at 1:166 and 1:500, respectively, in Opti -MEM I Reduced Serum Media. 25 µL of this solution was added to each well and plate was read immediately using an EnVision Multimode Plate Reader (PerkinElmer). The BRET ratio was calculated using the following formula:
BRET ratio = acceptorsample – acceptorno tracer control donorsample donorno tracer control
NanoBRET Target Engagement Assay (384-well)
HEK293T cells stably expressing either nLuc-FKBP12 or nLuc-FKBP35 were plated at 0.2×10^6 cells/mL in white, clear -bottom 384-well plates (Sigma Aldrich) in Opti -MEM I Reduced Serum Media (ThermoFisher Scientific) using a Mutidrop Combi Reagent Dispenser (ThermoFisher Scientific). Cells were incubated overnight at 37 °C, 5% CO 2. Using a Tecan D300e, the Rap-Gly-BDP tracer was added to cells to 1 µM. Plates were shaken at 700 RPM on an orbital plate shaker and incubated at 37 °C, 5% CO 2 for 10 minutes. Test compounds were added at the indicated concentrations using a Tecan D300e. Plates were shaken at 700 RPM on an orbital plate shaker and incubated at 37 °C, 5% CO 2 for 2 hours. NanoBRET Nano -Glo Substrate and Extracellular NanoLuc® Inhibitor (Promega, cat. N2160) were diluted at 1:166 and 1:500, respectively, in Opti-MEM I Reduced Serum Media. 10 µL of this solution was added to each well and plate was read immediately using an EnVision Multimode Plate Reader (PerkinElmer). The BRET ratio was calculated using the above formula.
Parasite Culture and Inhibition
NF54 P. falciparum parasites constitutively expressing Renilla luciferase (RLuc) and Blasticidin-S deaminase under the PfHsp86 5’ and PfHRP2 3‘ regulatory sequences integrated in the cg6 chromosomal locus 4 were maintained continuous ly in media consisting of human erythrocytes at 2% haematocrit (O+) resuspended in RPMI 1640 (Gibco® 31800022) supplemented with 5% Albumax (Gibco® 11021045; complete medium) and 2.5 µg/mL of Blasticidin (RPI Corp B12150-0.1) in a gas mixture consisting of 5% CO2, 1% O2, and 94% N2 at 37 °C (Trager and Jensen 2005).
Parasitemia was determined every 48 h through microscopic examination of thin blood smears fixed in methanol, stained with 10% Giemsa solution, and sub-cultured to 0.5-1% parasitaemia.
Compound susceptibility assays
In 96-well round-bottom plates, sorbitol -synchronized cultures of ring-stage NF54 P. falciparum parasites were established in triplicate and treated with varying concentrations of the inhibitors (25-0.0038 μM) serially diluted in complete medium. Parasite proliferation rates were analyzed after 72 h using the Renilla-Glo Luciferase Assay, and luminescence was measured using the GloMax® Discover Microplate Reader. EC 50 values were obtained from corrected dose-response curves using GraphPad Prism (version 5; GraphPad Software). Data represent the mean % luminescence relative to 5% DMSO-treated (vehicle, 100% growth) and 100 nM chloroquine-treated (no growth) controls.
In black, clear-bottom 96-well plates (No. 3904 Corning Life Sciences), HEK293T cells were plated at 2x10^5 cells/mL in DMEM high glucose, pyruvate media (ThermoFisher Scientific, cat. 11995073) supplemented with 10% FBS and 1% pen -strep (100 μL final volume). Cells were incubated overnight at 37°C, 5% CO2. Using a Tecan D300e digital dispenser, cells were dosed in triplicate […]
concentration, 100 mM stock in DMSO) and Carfilzomib (10 µM to 4.6 nM final concentration, 10 mM stock in DMSO) normalizing DMSO to 0.25%. Cells were then incubated at 37 °C, 5% CO2 for 72 hours. Following incubation, cells were treated with 70 µL CellTiter-Glo® Luminescent Cell […]

FKBP35 = target: T5, FKBP35 (Plasmodium falciparum, UniProt Q8I4V8); test: Time course of covalent modification by LC-MS; type: biochemical
T5 construct: FKBP35 Q5 -A128; 6His-SUMO (N, cleaved yes); made in house; host or cells: E. coli BL21 DE3
Source text: RT=5.2). B. Overlay of mass determinations from LC traces in (A). FBD35 only (black, m/z = […]
chromatogram corresponding to Figure 4c detecting the CAM -peptide […] at […]
m/z 855.8668. D. Mass spec chromatogram corresponding to Figure 4d detecting the CAM - […]
peptide […] at m/z 855.8670. E. Mass spec chromatogram corresponding to Figure 4e which was unable to detect the mass of the 1c-inclusion peptide. F. Mass spec chromatogram corresponding to Figure 4f detecting the 1c-inclusion peptide […]
Figure S2. Time course of covalent modification. In order to compare rates of covalent modification, compounds 1a-c, 2a, and 2c were incubated with FKBP35 in a 5:1 ratio (2250 nM inhibitor : 450 nM FKBP35) and FKBP35 consumption or modification determined by LC -MS. A.
The concentration of residual FKBP35 as a function of time. Data was fit to an exponential “one phase decay” model which was used to calculate the rate (K) and half -life (t1/2) of the reaction.
The loss of FKBP35 in the DMSO and 1b controls is likely due to adsorption onto the vial. B.
Concentration of covalent adduct as a function of time. Data was fit to an “exponential plateau” regression model, which was used to calculate the rate of formation (K’). Compound 1b, which […]
C. Tabulated rates calculated from the regressions in A and B. The rates of FKBP35 consumption correlate strongly with the rates of […]
(also on this page, place not known: -inclusion 1c 0 20 40 60 0 200 400 600 Time (hours) FKBP35 (nM) Consumption of FKBP35 1a 1b 1c 2a 2c DMSO 0 20 40 60 0 200 400 600 Time (hours) Covalent Adduct (nM) Formation of Covalent Adduct 1a 1b 1c 2a 2c A B) […]
(1 picture or pasted object on this page, not shown here)
Experiments were performed using 0.4 mg/mL concentration of wild -type or mutant protein (6 - 9 uM), with and without synthes ized compounds at 40 µM and 2% DMSO (V/V). The respective reference scans were run under identical DSC conditions and subtracted from each sample scan.
The program was run in a continuous acquisition mode from 25°C to 90°C at a rate of 120C/h The heat capacity curves and midpoint temperature (Tm) were analyzed using Origin 7.0 software.
Fluorescence Polarization
The fluorescent tracer SLFb-2PEG-TAMRA was diluted in DMSO to 100 nM (100x stock concentration). FKBP proteins were diluted in assay buffer (150 mM NaCl, 20 mM HEPES pH 7.5, 0.002% Triton X -100) to the indicated concentration. 100x DMSO tracer stock was added to the protein buffer solution to a 1X final concentration and 20 µL of the mixture was aliquoted into each well of a black 384 -well assay plate (No. 3820, Corning Life Sciences). The plate was briefly centrifuged to remove bubbles. Using a d300e digital dispenser (Tecan), competitive ligands (10 mM stock in DMSO) were aliquoted in triplicate in an 8 -point 3x dilution series (30 µM to 13.7 nM final concentra tion) and normalized to 2% total DMSO concentration. Following incubation at room temperature (RT) for one hour, fluorescence polarization was measured using an EnVision Multimode Plate Reader (PerkinElmer) with the TAMRA Dual -FP mirror and filter kit. […]
analyzed in GraphPad Prism 8 by fitting the data to the “One Site – Fit Ki” model to obtain the […]
Time Course Analysis of Covalent Inhibition
The following analy sis was performed as described on two different days, yielding similar results.
One replicate is shown for clarity. In 1.5 mL snap -top tubes, ligands 1a, 1b, 1c, 2a, and 2c were each diluted to 450 μM in DMSO to produce 200x stock solutions. In a separate 1.5 mL snap-top tube, isolated FKBP35 protein was diluted to 90 μM in the reaction buffer (150 mM NaCl, 20 mM HEPES pH = 7.5) to produce a 200x stock solution. In 2 mL glass mass spec vials, 5 μL of each 200x ligand solution was diluted in 990 μL reaction buffer. Immediately prior to injection of each t=0 time point, 5 μL of the 200x protein solution was added to the mass spec vial and mixed. Samples were analyzed using the Waters BioAccord LC-ToF (composed of an ACQUITY I -Class UPLC and […]

[7] = fluorescence polarization, competitive inhibition model, read-out: FKBP12 IC50
[8] = read-out: FBD35 IC50, fluorescence polarization, competitive inhibition model, * incomplete displacement of fluorescent probe
[9] = differential scanning calorimetry, compound 40 µM

T3 sequence (Q8I4V8 whole entry): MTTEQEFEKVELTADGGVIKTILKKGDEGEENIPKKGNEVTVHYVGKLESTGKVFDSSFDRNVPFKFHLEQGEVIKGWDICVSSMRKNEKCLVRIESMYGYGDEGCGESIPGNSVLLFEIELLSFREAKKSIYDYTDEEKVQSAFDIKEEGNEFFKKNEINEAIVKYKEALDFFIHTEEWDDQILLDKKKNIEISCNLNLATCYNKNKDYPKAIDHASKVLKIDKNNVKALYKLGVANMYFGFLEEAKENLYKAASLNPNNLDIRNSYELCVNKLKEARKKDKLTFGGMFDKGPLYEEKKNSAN
T1 sequence (Q8I4V8 5-128): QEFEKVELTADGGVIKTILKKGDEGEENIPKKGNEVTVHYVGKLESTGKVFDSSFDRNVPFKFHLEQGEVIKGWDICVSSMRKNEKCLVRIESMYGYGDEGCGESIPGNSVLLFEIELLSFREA
T4 sequence (P62942 whole entry): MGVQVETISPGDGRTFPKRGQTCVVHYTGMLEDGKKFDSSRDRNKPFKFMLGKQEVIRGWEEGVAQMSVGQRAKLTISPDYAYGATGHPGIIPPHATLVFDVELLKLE
T2 sequence (P62942 whole entry): as above
T5 sequence (Q8I4V8 5-128): as the sequence (Q8I4V8 5-128) above

Structure (SMILES) | IC50 [1] | IC50 (FKBP12 [2]) | ΔTm at 40 µM [3] | ΔTm at 40 µM (FKBP12 [4]) | solubility (PBS solubility) | IC50 (FKBP12 [2]; [7]) | other results
C=CC(=O)OCC(C)(C)C(=O)C(=O)N1CCCC[C@H]1C(=O)O[C@H](CCc1ccc(OC)c(OC)c1)c1cccc(OCC(=O)O)c1 [2h] | 137 nM | 38 nM | 16.3 °C | 6.2 °C | 70 µM (≈ 44.8 µg/mL) | – | –
CCC(C)(C)C(=O)C(=O)N1CCCC[C@H]1C(=O)O[C@H](CCc1ccc(OC)c(OC)c1)c1cccc(OCC(=O)O)c1 [SLFb, reference compound] | 761 nM | – | 2.8 °C | 6.6 °C | 59 µM (≈ 34.4 µg/mL) | 27 nM | tracer displacement (in words), FKBP35 ([5]; NanoBRET, 2 h incubation): markedly reduced probe displacement; tracer displacement (in words), FKBP12 (nLuc-tagged FKBP12; NanoBRET, 2 h incubation): markedly reduced probe displacement; IC50 [6]: 33.7 µM
C=CC(=O)NCC(C)(C)C(=O)C(=O)N1CCCC[C@H]1C(=O)O[C@H](CCc1ccc(OC)c(OC)c1)c1ccccc1 [2a] | 104 nM | 23 nM | 15.2 °C | 8.8 °C | – | – | IC50 [5]: 1350 nM; IC50 (nLuc-tagged FKBP12): 501 nM; K, rate of FKBP35 consumption (FKBP35; 2250 nM inhibitor : 450 nM FKBP35, 23 °C, one phase decay fit): 0.05916 h⁻¹; K’, rate of covalent adduct formation (FKBP35; 2250 nM inhibitor : 450 nM FKBP35, exponential plateau fit): 0.04354 h⁻¹
C=CC(=O)Nc1ccccc1[C@@H](CCc1ccc(OC)c(OC)c1)OC(=O)[C@@H]1CCCCN1C(=O)C(=O)c1cc(OC)c(OC)c(OC)c1 [1f] | – | – | – | 1.4 °C | 23 µM (≈ 15.5 µg/mL) | 3270 nM | IC50 [1, 8]: > 30000 nM; ΔTm at 40 µM [3, 9]: -1.3 °C
C=CC(=O)Nc1cccc([C@@H](CCc2ccc(OC)c(OC)c2)OC(=O)[C@@H]2CCCCN2C(=O)C(=O)c2cc(OC)c(OC)c(OC)c2)c1 [1e] | – | 326 nM | 1.5 °C | 4.9 °C | 3.1 µM (≈ 2.09 µg/mL) | – | IC50 [1, 8]: > 30000 nM
C=CC(=O)Nc1cc(OC)ccc1C(=O)C(=O)N1CCCC[C@H]1C(=O)O[C@H](CCc1ccc(OC)c(OC)c1)c1ccccc1 [2g] | – | – | – | 0.1 °C | – | > 30000 nM | ΔTm at 40 µM [3, 9]: 0 °C
C=CC(=O)Nc1ccc([C@@H](CCc2ccc(OC)c(OC)c2)OC(=O)[C@@H]2CCCCN2C(=O)C(=O)C(C)(C)CC)cc1 [1d] | 85 nM | 100 nM | 2.3 °C | 6 °C | – | – | –
C=CC(=O)NCCCC(=O)N1CCCC[C@H]1C(=O)O[C@H](CCc1ccc(OC)c(OC)c1)c1ccccc1 [2e] | 2640 nM | 3250 nM | 13.8 °C | 7.9 °C | – | – | –
CCC(C)(C)C(=O)C(=O)N1CCCC[C@H]1C(=O)O[C@H](CCc1ccc(OC)c(OC)c1)c1cccc(N)c1 [SLF, reference compound] | 177 nM | – | 2.9 °C | 0.4 °C | – | – | –
C=CC(=O)Nc1ccccc1C(=O)C(=O)N1CCCC[C@H]1C(=O)O[C@H](CCc1ccc(OC)c(OC)c1)c1ccccc1 [2f] | – | – | – | 0.2 °C | – | > 30000 nM | ΔTm at 40 µM [3, 9]: 0.4 °C
CCC(=O)NCC(C)(C)C(=O)C(=O)N1CCCC[C@H]1C(=O)O[C@H](CCc1ccc(OC)c(OC)c1)c1ccccc1 [2b] | 92 nM | 40 nM | 4.3 °C | 7.7 °C | – | – | IC50 [5]: 1880 nM; IC50 (nLuc-tagged FKBP12): 416 nM
